What all share (format): cell-based
Assay [1] concerns Kelly cells. Briefly: CellTiter-Blue cell viability assay after chemotherapy. Conditions: increasing doses, 72 hours, FIG. 1C, 1D. The method, then:
(§1) 4,000 cells were seeded in a 96 well plate and allowed to adhere over-night. Cells were then treated with increasing amount of chemotherapy or vehicle control for 72 hours to induce varying amount of cell killing. Cell viability was then measured using CellTiter-Blue Cell Viability Assay form Promega following manufacturer's instruction.
A general note: Resazurin is reduced to fluorescent resorufin, in cell work by metabolically active cells.

The test system of assay [2] is Kelly cells. Briefly: nfP2X7 antibody binding to live cells by flow cytometry after chemotherapy. Conditions: doxorubicin 0.0625 μM to 0.25 μM or 5 Fu 1 μM to 8 μM, 72 hours, FIG. 2B, 2C. The method, then: (§2) 500,000 cells were seeded in a 6 well plate and allowed to adhere over-night. Cells were then treated with increasing amount of chemotherapy or vehicle control for 72 hours to induce varying amount of cell killing. The remaining live cells were dissociated in PBS based enzyme-free dissociation buffer, washed and re-suspended in staining buffer (PBS, 2% FCS). Cells were then stained for 1 h with primary antibody raised against non-functional P2X7 (here 2-2-1hFc), washed 3 times in staining buffer prior to a 1 h incubation with fluorescently coupled secondary antibody and 7AAD. Fluorescence staining on live cells was acquired using a BD Accuri flow cytometer and analysed with FlowJo-flow cytometry analysis software. Median fluorescence intensity of the live cell population was analysed using 7AAD live dead staining.
On the technique in general: Flow cytometry measures light scatter and fluorescence of single cells or particles in a stream.

In assay [3] the test system is myeloma RPMI-8226 cell line. Briefly: Ethidium influx in response to BzATP stimulation (P2X7 pore opening). The following applies: 0.5 mM BzATP, FIG. 1A. As to the method: Normalised ethidium influx in response to 0.5 mM BzATP stimulation in the myeloma RPMI-8226 and neuroblastoma Kelly cell lines. Mean of three independent experiments is shown.
In assay [4] the test system is RPMI-8226 cells. Description: CellTiter-Blue cell viability assay after chemotherapy. The following applies: increasing doses, 72 hours, FIG. 1B. As to the method: as §1
In assay [5] the test system is RPMI-8226 cells. Briefly: nfP2X7 antibody binding to live cells by flow cytometry after chemotherapy. Conditions: doxorubicin 0.0625 μM to 0.25 μM, 72 hours, FIG. 2A. The method, then:
as §2

The test system of another assay is P2X7 receptor. Briefly: nfP2X7 induction by Condition Media from Doxorubicin treated RPMI-8226 cells with P2X7 inhibitor. Conditions: Condition Media from RPMI-8226 treated with Doxorubicin; FIG. 6b.
In another assay the test system is nfP2X7. Briefly: HMGB1-driven increase in nfP2X7. Conditions: FIG. 6a.

For the molecule `O=c1[nH]cc(F)c(=O)[nH]1` [5 Fu, Fluorouracil], the “Effect on cell viability (CTB assay)” value with Kelly cells [1] is “cell death”. The “Effect on nfP2X7 antibody binding to live cells” value in the assay on Kelly cells [2] is given as “increased nfPX7 antibody binding”.

`Nc1ncnc2c1ncn2[C@@H]1O[C@H](COP(=O)(O)OP(=O)(O)OP(=O)(O)O)[C@@H](OC(=O)c2ccc(C(=O)c3ccccc3)cc2)[C@H]1O` [BzATP]: the “P2X7 pore opening (normalised ethidium influx)” value in assay [3] is “able to open the P2X7 pore”.

As to `COc1cccc2c1C(=O)c1c(O)c3c(c(O)c1C2=O)C[C@@](O)(C(=O)CO)C[C@@H]3O[C@H]1C[C@H](N)[C@H](O)[C@H](C)O1` [Doxorubicin], the “Effect on cell viability (CTB assay)” value with Kelly cells [1] and in the assay on RPMI-8226 cells [4] was “cell death” throughout. The “Effect on nfP2X7 antibody binding to live cells” value in the assay with Kelly cells [2] and in the assay on RPMI-8226 cells [5] was “increased nfPX7 antibody binding” each time.

With `COc1ccc(CC(=O)NC(N=C(NC#N)Nc2cccc3ncccc23)C(C)(C)C)cc1OC` (stereo not drawn) [A 740003, N-[1-[[(Cyanoamino)(5-quinolinylamino)methylene]amino]-2,2-dimethylpropyl]-3,4-dimethoxybenzeneacetamide], the “Block of conditioned media induced nfP2X7 induction” value in the assay with P2X7 receptor was “does not block”.

B1: HMGB1: DAMP released by chemo- and radio-therapy (protein, UniProt P09429 1-215, looked up)
High mobility group protein B1: MGKGDPKKPRGKMSSYAFFVQTCREEHKKKHPDASVNFSEFSKKCSERWKTMSAKEKGKFEDMAKADKARYEREMKTYIPPKGETKKKFKDPNAPKRPPSAFFLFCSEYRPKIKGEHPGLSIGDVAKKLGEMWNNTAADDKQPYEKKAAKLKEKYEKDIAAYRAKGKPDAAKKGVVKAEKSKKKKEEEEDEEDEEDEEEEEDEEDEDEEEDDDDE
Regarding B1, the “Effect on nfP2X7 level” value with nfP2X7 is given as “drives the increase in nfP2X7”.
